Substitutions are numbered along the chain they refer to. In names and notes the source's numbering stands.

Assay [1] concerns Man2A E429A. Description: Competition study for evaluation of relative rates of transfer to S- and O-acceptors (HPLC). The assay is classed as biochemical, Cellulomonas fimi. The note with it: 6 vs pNP-Xyl, 5.5 mM each; donor DNP-Man; pH 6.8, RT; integration of HPLC peaks. As to the method:
Arrows indicate the elution of the O-linked disaccharides, 10 is the S-linked disaccharide.
In order to assess the relative rates of transfer to the oxygen and sulfur nucleophiles in the case of Man 2A E429A we established a competition reaction in which equimolar amounts of pNP-Xyl and its 4-thio analogue 6 were incubated together with DNP-Man as donor and Man2A E429A (FIG. 3). When the concentration of donor was limiting (one third of the concentration of acceptors) we saw exclusive formation of the S-linked disaccharide 10 (a). However, upon addition of further donor to a final concentration twice that of the acceptors the O-linked disaccharides (indicated by arrows) were formed (b).
pNP-Xyl (5.5 mM), 6 (5.5 mM), DNP-Man (3.75 mM) and Man2A E429A (˜1 mg ml.) were incubated in phosphate buffer (50 mM, pH 6.8) for 3 h at RT. After removal of an aliquot DNP-Man was added to a final concentration of 22 mM. After 5 h at RT another aliquot was taken. The aliquots were diluted 1:3 with acetonitrile and centrifuged before applying to the HPLC. HPLC analysis was performed using a Waters 600E multisolvent delivery system with acetonitrile (A)/water (B) as mobile phase (linear gradient: 80% A→60% A in 15 min, flow: 1 ml min^−1), a Waters 2486 Dual λ Absorbance Detector (detection at 280 nm), a TOSO HAAS Amide 80 column (4.6×250 mm) and Millenium 3.20 software.

A further assay deals with T1, Cex E127A (Cellulomonas fimi, UniProt P07986, E168A).
T1 sequence (P07986 42-484 E168A): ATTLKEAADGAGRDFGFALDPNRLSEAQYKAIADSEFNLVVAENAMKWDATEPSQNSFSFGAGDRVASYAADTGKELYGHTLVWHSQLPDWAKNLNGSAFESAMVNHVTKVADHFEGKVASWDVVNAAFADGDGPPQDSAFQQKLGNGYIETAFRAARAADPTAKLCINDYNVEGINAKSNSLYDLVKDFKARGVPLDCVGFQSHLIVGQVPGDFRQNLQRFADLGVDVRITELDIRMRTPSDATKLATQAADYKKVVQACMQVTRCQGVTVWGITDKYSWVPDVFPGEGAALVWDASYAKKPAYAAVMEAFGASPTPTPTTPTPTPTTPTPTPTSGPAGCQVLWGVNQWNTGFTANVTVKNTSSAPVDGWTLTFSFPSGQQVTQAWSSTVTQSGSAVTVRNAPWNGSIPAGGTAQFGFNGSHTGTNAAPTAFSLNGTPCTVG
The assay is described as follows: Functional donors and acceptors for Cex E127A. The assay is classed as biochemical.

Assay [2] has as its target T2, Abg E171A (Agrobacterium sp., UniProt P12614, E171A). It is filed as biochemical. The note with it: acceptor with Abg E171A in the presence of DNP-Glc as donor.
For assay [3], the system named is Man2A E429A. The assay is described as follows: Control reaction with parent sugars as acceptors, DNP-Man as donor. The assay is classed as biochemical, Cellulomonas fimi. The conditions noted are these: acceptor for Man2A E429A in the presence of DNP-Man.
The target of assay [4] is T2, Abg E171A. Description: Kinetic analysis of thioglycoligase reaction (DNP release) with Abg E171A. The assay is classed as biochemical. The note with it: acceptor; donor 2,4-DNP β-D-glucopyranoside (125 mM); 30° C., 50 mM NaPi, 145 mM NaCl, pH 7.1; calculated from the highest observed rate of DNP release. As for the experimental part: Kinetic analysis was performed with 2,4-DNP β-D-glucopyranoside (125 mM) as donor and with pNP 4-deoxy-4-thio-β-D-glucopyranoside as acceptor at 30° C. in 50 mM NaPi, 145 mM NaCl, pH 7.1 (FIG. 7). It has been shown previously, that the KM− value of the donor is extremely low (<1 μM), and that no donor substrate inhibition is seen. Enzymatic background hydrolysis of the donor together with acceptor substrate inhibition make it difficult to exactly determine K′M and k′cat, but it can be calculated from the highest observed rate of DNP release, that k′cat is higher than 50 min^−1.

A short description of assay [5]: Saturation mutagenesis at the acid/base position (E171) of Abg: thioligase functionality. The assay is classed as biochemical, Agrobacterium sp.
The nature of assay [6]: Thioglycoligase function of Cex acid/base mutant. The conditions noted are these: mutation of the catalytic acid/base residue E127. The assay is classed as biochemical, Cellulomonas fimi.

T2 sequence (P12614 whole entry E171A, looked up): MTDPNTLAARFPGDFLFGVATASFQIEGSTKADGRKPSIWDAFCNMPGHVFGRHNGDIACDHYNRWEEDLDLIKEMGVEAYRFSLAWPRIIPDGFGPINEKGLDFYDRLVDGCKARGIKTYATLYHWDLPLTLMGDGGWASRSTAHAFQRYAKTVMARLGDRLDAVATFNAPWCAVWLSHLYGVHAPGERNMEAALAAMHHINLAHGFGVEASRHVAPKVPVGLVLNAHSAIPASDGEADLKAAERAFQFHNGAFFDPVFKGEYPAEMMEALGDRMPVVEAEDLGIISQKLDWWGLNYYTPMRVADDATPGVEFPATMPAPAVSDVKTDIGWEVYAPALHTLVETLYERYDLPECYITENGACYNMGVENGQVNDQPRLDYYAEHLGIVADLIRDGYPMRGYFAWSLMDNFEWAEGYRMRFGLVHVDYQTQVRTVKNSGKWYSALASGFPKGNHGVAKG

On to `O=[N+]([O-])c1ccc(O[C@@H]2OC[C@@H](S)[C@H](O)[C@H]2O)cc1` [compound 6, p-Nitrophenyl 4-deoxy-4-thio-β-D-xylopyranoside], for which, in the assay on Man2A E429A [1], the “transfer to the thiosugar acceptor faster than transfer to its oxygen analogue” value is on record as “at least 100 fold”. In the case of `O=[N+]([O-])c1ccc(O[C@@H]2O[C@H](CO)[C@@H](O[C@@H]3O[C@H](CO)[C@@H](O)[C@H](O)[C@H]3O)[C@H](O)[C@H]2O)c([N+](=O)[O-])c1` [DNP β-cellobioside], the donor function entry on Cex E127A is recorded as “Functional donors”. For `O=[N+]([O-])c1ccc(O[C@@H]2OC[C@@H](O)[C@H](O)[C@H]2O)cc1` [pNP-Xyl, para-nitrophenyl β-D-xylopyranoside], the formation of disaccharides result on Abg E171A [2] is “no formation of disaccharides”. Moreover, the “formation of disaccharide products” value in the assay on Man2A E429A [3] is reported as “only very slowly”. Consider `OC[C@H]1O[C@@H](O[C@H]2[C@H](O)[C@@H](O)C(O)O[C@@H]2CO)[C@H](O)[C@@H](O)[C@@H]1S` (stereo partly drawn) [4′-deoxy-4′-thio-cellobiose], for which, on Cex E127A, the acceptor function entry is “Functional acceptors”. Consider `O=[N+]([O-])c1ccc(O[C@@H]2O[C@H](CO)[C@@H](S)[C@H](O)[C@H]2O)cc1` [compound 3, para-nitrophenyl 4-deoxy-4-thio-β-D-glucopyranoside], for which, at Cex E127A, the acceptor function entry is listed as “Functional acceptors”. Besides, the “k′cat” value on Abg E171A [4] is given as “higher than 50 min^−1”. Consider `O=[N+]([O-])c1ccc(O[C@@H]2O[C@H](CO)[C@@H](O)[C@H](O)[C@H]2O)cc1` [pNP-Glc, para-nitrophenyl β-D-glucopyranoside], for which, on Abg E171A [2], the formation of disaccharides result is “no formation of disaccharides”. Further, in the assay on Man2A E429A [3], the “formation of disaccharide products” value is on record as “only very slowly”. As to `O=[N+]([O-])c1ccc(O[C@@H]2O[C@H](CO)[C@@H](O[C@@H]3O[C@H](CO)[C@@H](S)[C@H](O)[C@H]3O)[C@H](O)[C@H]2O)cc1` [pNP 4′-deoxy4′-thio-β-cellobioside, pNP 4′-deoxy-4′-thio-β-cellobioside], at Cex E127A, the acceptor function entry was “Functional acceptors” and the donor function result was “Functional donors”.

B1: Abg E171G: acid/base position (E171) mutant of the β-glucosidase from Agrobacterium sp. (Abg) (protein, UniProt P12614 1-459, looked up, variant E171G)
Beta-glucosidase: MTDPNTLAARFPGDFLFGVATASFQIEGSTKADGRKPSIWDAFCNMPGHVFGRHNGDIACDHYNRWEEDLDLIKEMGVEAYRFSLAWPRIIPDGFGPINEKGLDFYDRLVDGCKARGIKTYATLYHWDLPLTLMGDGGWASRSTAHAFQRYAKTVMARLGDRLDAVATFNGPWCAVWLSHLYGVHAPGERNMEAALAAMHHINLAHGFGVEASRHVAPKVPVGLVLNAHSAIPASDGEADLKAAERAFQFHNGAFFDPVFKGEYPAEMMEALGDRMPVVEAEDLGIISQKLDWWGLNYYTPMRVADDATPGVEFPATMPAPAVSDVKTDIGWEVYAPALHTLVETLYERYDLPECYITENGACYNMGVENGQVNDQPRLDYYAEHLGIVADLIRDGYPMRGYFAWSLMDNFEWAEGYRMRFGLVHVDYQTQVRTVKNSGKWYSALASGFPKGNHGVAKG
In the case of B1, the functionality as thioligase result in assay [5] was “functionality as thioligases”.

B2: E171M: acid/base position (E171) mutant of Abg (protein, UniProt P12614 1-459, looked up, variant E171M)
Beta-glucosidase: B1 Beta-glucosidase with G171M
For the molecule B2, in assay [5], the functionality as thioligase result is “functionality as thioligases”.

B3: E171S: acid/base position (E171) mutant of Abg (protein, UniProt P12614 1-459, looked up, variant E171S)
Beta-glucosidase: B1 Beta-glucosidase with G171S
Regarding B3, in assay [5], the functionality as thioligase result is reported as “functionality as thioligases”.

B4: E171N: acid/base position (E171) mutant of Abg (protein, UniProt P12614 1-459, looked up, variant E171N)
Beta-glucosidase: B1 Beta-glucosidase with G171N
For the molecule B4, in assay [5], the functionality as thioligase result is listed as “functionality as thioligases”.

B5: E171T: acid/base position (E171) mutant of Abg (protein, UniProt P12614 1-459, looked up, variant E171T)
Beta-glucosidase: B1 Beta-glucosidase with G171T
Regarding B5, in assay [5], the functionality as thioligase result is “functionality as thioligases”.

B6: E171F: acid/base position (E171) mutant of Abg (protein, UniProt P12614 1-459, looked up, variant E171F)
Beta-glucosidase: B1 Beta-glucosidase with G171F
B6: the functionality as thioligase result in assay [5] is reported as “functionality as thioligases”.

B7: E171L: acid/base position (E171) mutant of Abg (protein, UniProt P12614 1-459, looked up, variant E171L)
Beta-glucosidase: B1 Beta-glucosidase with G171L
B7: in assay [5], the functionality as thioligase result is “functionality as thioligases”.

B8: Abg E171Q: acid/base position (E171) mutant of the β-glucosidase from Agrobacterium sp. (Abg) (protein, UniProt P12614 1-459, looked up, variant E171Q)
Beta-glucosidase: B1 Beta-glucosidase with G171Q
As for B8, the functionality as thioligase result in assay [5] was “functionality as thioligases”.

B9: E171I: acid/base position (E171) mutant of Abg (protein, UniProt P12614 1-459, looked up, variant E171I)
Beta-glucosidase: B1 Beta-glucosidase with G171I
With B9, the functionality as thioligase result in assay [5] is on record as “functionality as thioligases”.

B10: Cex E127A: endo acting retaining β-glycosidase from Cellulomonas fimi (Cex) mutated at the catalytic acid/base residue E127 (protein, UniProt P07986 42-484, looked up, variant E127A)
Exoglucanase/xylanase: T1 sequence (P07986 42-484 E168A)
For B10, the thioglycoligase function entry in assay [6] was “functional thioglycoligase”.

These data come from US20070004010A1, “Engineered Enzymes and Their Use for Synthesis of Thioglycosides” (THE UNIVERSITY OF BRITISH COLUMBIA, priority 2002, published 2007).
